System: live leukemic cells of AML patient samples (bone marrow or peripheral blood)
Test: Ex-vivo effect on AML patient samples, depletion of live leukemic cells by flow cytometry
Assay type: cell-based, human
Details: plates incubated for 48 hours
Procedure: Patient samples were obtained from a non-interventional and prospective study. The study included samples from adult patients over 18 years of age who were diagnosed with Acute Myeloid Leukemia (AML).
In one embodiment, the method of data acquisition was performed as follows: on day 1 bone marrow (BM) or peripheral blood (PB) patient sample was received. A small part was separated from the rest of the sample for validation, while the majority of the sample was diluted with culture media and plated into 96-well plates previously prepared with the desired compounds and compound combinations, e.g., a compound or compound combination described herein. The number of live leukemic cells seeded in each well was fixed between 8000 and 32000, depending on the percentage of leukemic cells for each sample. […] Antibodies were added to identify leukemic cells using a gating strategy based on FSC/SSC and expression or lack of expression of different surface markers. The monoclonal antibodies selection was performed to optimize the identification of leukemic cell in each sample.
In one embodiment, non-limiting examples of biomarkers such as the biomarkers CD34, CD45, CD117, and HLADR known as “backbone markers” for AML (van Dongen, J. J. and A. Orfao, EuroFlow: Resetting leukemia and lymphoma immunophenotyping. Basis for companion diagnostics and personalized medicine, Leukemia, 2012, 26, 1899-907) were included in the combination.
In one embodiment, antibody combinations such as CD117/CD45, CD34/CD45, and HLADR/CD45 were used. Live leukemic cells were identified by their light scatter properties (FSC^int/hi/SSC^int) in the absence of Annexin-V-FITC staining. FSC/SSC selection was performed to exclude debris. The average percentage of cell viability upon receipt of the sample was 80% and samples were only processed if the viability was greater than 50%.
In one embodiment, sample validation was performed as follows: BM and PB samples were extracted under sterile conditions and received in the laboratory within 24 hours of extraction. Initial analysis evaluated the number of pathological cells and their viability. Different volumes of sample (1 μL, 3 μL, 5 μL and 7 μL) were aliquoted in duplicate into a 96-well plate. To lyse red blood cells, 180 μL of ammonium chloride lysis solution was added to each well (2 g KHCO3, 16.58 g NH4Cl, 0.074 g Na2EDTA.2H2O, H2O to 1 L). Following a 10 min incubation period at 4° C., plate was centrifuged for 5 min at 1200 rpm and the supernatant removed. The lysis step was performed twice. To analyze, 20 μL of a combination of Annexin V-FITC (Immunostep, Salamanca, Spain), binding buffer (BB, 2.4 g HEPES, 8.19 g NaCl, 0.37 g Cl2Ca, H2O to 1 L), and the following monoclonal antibodies (mAb) were added to each well: CD117 (clone 104D2)-PE (Becton Dickinson, San Jose, Calif., US), CD34 (clone 581)-PerCP (BioLegend, San Diego, Calif., US), HLADR (clone L243)-PB (BioLegend) and CD45 (HI30)-PO (Life Technologies, Carlsbad, Calif., US) (van Dongen, J. J., et al., EuroFlow antibody panels for standardized n-dimensional flow cytometric immunophenotyping of normal, reactive and malignant leukocytes, Leukemia, 2012, 26, 1908-75). After 15 min of incubation at room temperature in the dark, a wash step was performed using binding buffer solution. The pellet was resuspended in 30 μL BB for analysis in Vivia's ExviTech© platform. Cell count and viability upon arrival were computed and the optimal volume of sample to use per well was determined.
In one embodiment, the assay was performed according to following method: the whole sample was diluted with RPMI 1640, supplemented with 20% (v/v) FBS (Thermo Scientific, Waltham, Mass., US), 2% HEPES, 1% antibiotic (Zell Shield, Labclinics, Barcelona, Spain) and 1% L-glutamine 200 mM (Lonza, Hopkinton, Mass., US) to a final volume of 60 μL per well. […]

| EC50 (Homo sapiens, 48 h) [µM] | EC50 [µM] | SMILES | Emax (Homo sapiens, 48 h) [%] | Emax (%) |
| --- | --- | --- | --- | --- |
| 10 to 20 |  | CCOC(=O)COP(=O)(N[C@@H](CC(C)C)C(=O)OCC)OC[C@H]1S[C@@H](n2ccc(N)nc2=O)[C@@H](O)[C@@H]1O (single isomer, unassigned) [drawing 51] | 0 to 10 |  |
| 1 to 10 |  | COC(=O)COP(=O)(N[C@@H](CC(C)C)C(=O)OC)OC[C@H]1S[C@@H](n2ccc(N)nc2=O)[C@@H](O)[C@@H]1O (single isomer, unassigned) [drawing 54] | 0 to 10 |  |
|  | 1 to 10 | COC(=O)COP(=O)(N[C@@H](CC(C)C)C(=O)OC)OC[C@H]1S[C@@H](n2ccc(N)nc2=O)[C@@H](O)[C@@H]1O (single isomer, unassigned) [drawing 55] |  |  |
| ≥ 20 |  | CC(C)(C)SSCCOP(=O)(NCc1ccccc1)OC[C@H]1S[C@@H](n2ccc(N)nc2=O)[C@@H](O)[C@@H]1O (single isomer, unassigned) [drawing 57] | 10 to 20 |  |
|  | ≥ 20 | CC(C)(C)SSCCOP(=O)(NCc1ccccc1)OC[C@H]1S[C@@H](n2ccc(N)nc2=O)[C@@H](O)[C@@H]1O (single isomer, unassigned) [drawing 58] |  | C (C>20%) |

Continued, molecule first:

| SMILES | EC50 (Homo sapiens, 48 h) [µM] | EC50 [µM] | Emax (Homo sapiens, 48 h) [%] | Emax (%) |
| --- | --- | --- | --- | --- |
| Nc1ccn([C@@H]2S[C@H](COP(=O)(NCc3ccccc3)OCc3ccc([N+](=O)[O-])o3)[C@@H](O)[C@@H]2O)c(=O)n1 (single isomer, unassigned) [drawing 52] |  | 10 to 20 | 0 to 10 |  |
| Nc1ccn([C@@H]2S[C@H](COP(=O)(NCc3ccccc3)OCc3ccc([N+](=O)[O-])o3)[C@@H](O)[C@@H]2O)c(=O)n1 (single isomer, unassigned) [drawing 53] |  | 1 to 10 |  | A (A=0-10%) |
| Nc1ccn([C@@H]2S[C@H](COP(=O)(O)NCc3ccccc3)[C@@H](O)[C@@H]2O)c(=O)n1 [drawing 49] | 1 to 10 |  | 10 to 20 |  |
